Assay results from ChEMBL document CHEMBL6182858, “Dichloromethyl-Containing Derivatives from Streptomyces agglomeratus 5-2-6, a Soil Bacterium Isolated from the Qinghai-Tibet Plateau” (J Nat Prod, 2025).

test system: Bacillus thuringiensis; experiment: Antibacterial activity against Bacillus thuringiensis assessed as inhibition of bacterial growth by agar plate method; type: functional, organism-based; call rule not given here

Structure (SMILES) | Activity
CC/C=C(\C)[C@@H](O)[C@@H](O)C1=CC(=O)/C(=C\C(Cl)Cl)O1 | Moderate_effect
CC/C=C(\C)[C@@H](O)[C@@H](O)c1cc(C(Cl)Cl)cc(=O)o1 | Not active; Detectable Activity Not Observed
O=c1cc(C(Cl)Cl)cc(CO)o1 | Not active; Detectable Activity Not Observed
CC[C@@H](O)[C@@](C)(O)/C=C/C=C\[C@H](O)C(Cl)Cl | Not active; Detectable Activity Not Observed
CC[C@H](O)/C(C)=C/[C@@H](O)c1cc(C(Cl)Cl)cc(=O)o1 | Not active; Detectable Activity Not Observed
CC/C=C(\C)[C@@H](O)[C@@H](O)C1=CC(=O)/C(=C/C(Cl)Cl)O1 | Moderate_effect
CC[C@@H](O)[C@](C)(O)/C=C/C=C\[C@H](O)C(Cl)Cl | Not active; Detectable Activity Not Observed
CC[C@@H](O)/C(C)=C/[C@@H](O)c1cc(C(Cl)Cl)cc(=O)o1 | Not active; Detectable Activity Not Observed
